Measurements: PMC4291531 (The Journal of Experimental Medicine, 2015)

T1: human MD-2 (Homo sapiens, UniProt Q9Y6Y9)
T1 sequence (Q9Y6Y9 19-160): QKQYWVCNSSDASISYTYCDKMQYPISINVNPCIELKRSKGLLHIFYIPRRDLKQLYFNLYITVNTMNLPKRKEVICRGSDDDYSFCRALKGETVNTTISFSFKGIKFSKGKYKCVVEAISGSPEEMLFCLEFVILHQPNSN

B1: Hg-HMGB1: HMGB1 with mercury thiolate on cysteine at position 106 (protein, UniProt P09429 1-215, looked up)
High mobility group protein B1: MGKGDPKKPRGKMSSYAFFVQTCREEHKKKHPDASVNFSEFSKKCSERWKTMSAKEKGKFEDMAKADKARYEREMKTYIPPKGETKKKFKDPNAPKRPPSAFFLFCSEYRPKIKGEHPGLSIGDVAKKLGEMWNNTAADDKQPYEKKAAKLKEKYEKDIAAYRAKGKPDAAKKGVVKAEKSKKKKEEEEDEEDEEDEEEEEDEEDEDEEEDDDDE
modifications: mercury thiolate on C106

Columns and labels:
WT or MD-2 KO mice = test: APAP hepatotoxicity in WT or MD-2 KO mice; type: in vivo, mouse
human MD-2 = biological target: T1, human MD-2; test: SPR; type: binding; settings: MD-2 coated on chip; for reduction in MD-2 binding as compared with disulfide HMGB1: SPR, HMGB1 isoforms
RAW 264.7 cells = test: TNF release from RAW 264.7 cells stimulated with HMGB1 isoforms; settings: 1 µg/ml, 16 h, n = 3–5 experiments
[1] = biological target: human MD-2 (myeloid differentiation factor 2) (human) (UniProt Q9Y6Y9); test: SPR
immune cells = settings: ref Tang et al., 2012, Venereau et al.; cited from earlier work
[2] = test system: thioglycollate-elicited peritoneal macrophages (WT and MD-2 KO); type: cell-based; settings: MD-2 KO vs WT macrophages; mouse cytokine antibody array

Molecule	reduction in MD-2 binding as compared with disulfide HMGB1 (human MD-2)	TNF release induced by HMGB1 isoform (RAW 264.7 cells)	extracellular chemokine/cytokine activity (in words) (immune cells)	other results
CC(=O)Nc1ccc(O)cc1 [APAP, acetaminophen]				serum HMGB1 levels, WT and MD-2 KO mice (WT or MD-2 KO mice; 24 h after APAP): comparably elevated in WT and MD-2 KO mice; APAP acute hepatic injury (GLDH, AST, ALT, necrosis), MD-2 KO vs WT (WT or MD-2 KO mice; APAP 400 mg/kg i.p., 24 h, n = 5–13 mice per group): significant reduction in acute hepatic injury; cytokine release and APAP-induced lethality, MD-2 KO vs WT (WT or MD-2 KO mice; APAP i.p. 400 mg/kg (serum, 24 h), 350 mg/kg (survival, n = 15)): significant reduction in cytokine (TNF and IL-6) release and APAP-induced animal lethality
H2S-modified HMGB1: HMGB1 S-sulfhydrated by incubation with 5 mM NaSH for 3 h at room temperature	> 1,000 fold	failed to induce TNF release		
disulfide HMGB1 (from UniProt P63159 1-215) (natural protein)				Kd [1]: 12 nM
disulfide HMGB1: recombinant cytokine-stimulating HMGB1; disulfide bond between cysteines 23 and 45 and reduced thiol on cysteine 106		induced TNF secretion	activates immune cells to produce cytokines/chemokines via the TLR4 receptor	MD-2 binding (in words) (human MD-2; SPR Biacore): binds to MD-2 with high affinity; release of IL-12/p40 stimulated with HMGB1 [2]: via an MD-2–independent mechanism
fully reduced HMGB1: HMGB1 with all cysteine residues reduced (DTT-reduced)	> 1,000 fold	failed to induce TNF release	binds to CXCL12 and stimulates immune cell infiltration via the CXCR4 receptor	
sulfonyl HMGB1 (from UniProt P63159 1-215) (natural protein)				fold reduction in MD-2 binding against disulfide HMGB1 [1]: > 1000 fold
sulfonyl HMGB1: HMGB1 with all cysteines terminally oxidized	> 1,000 fold	failed to induce TNF release	devoid of chemotactic and cytokine activities	
B1		Noncytokine-inducing		
